Measured values reported in patent US20070049564A1 (Wyeth, priority 2005, published 2007).
In brackets after ≈: the same amount, converted by molar mass. Like-named read-outs stand apart in the source and are kept apart here.

Tests used:
E. coli GC 2236 = assay: MIC, broth microdilution; conditions: Escherichia coli, GC2236, E. coli GC 2236
Method: Antimicrobial susceptibility testing. The in vitro activities of the antibiotics are determined by the broth microdilution method as recommended by the National Committee for Clinical Laboratory Standards (NCCLS) (1). Mueller-Hinton II broth (MHBII)(BBL Cockeysville, Md.) is the medium employed in the testing procedures. Microtiter plates containing serial dilutions of each antimicrobial agent are inoculated with each organism to yield the appropriate density (10^5 CFU/ml) in a 100 μl final volume. The plates are incubated for 18-22 hours at 35° C. in ambient air. […] Standard Pharmacological Test Procedures
Presented in Tables I-XIII are representative compounds of Formula I which were evaluated against a panel of 40 selected gram-positive and gram-negative bacteria strains by pre-incubation in water, mouse serum or human serum. Representative compounds were first incubated in mouse serum for an hour prior to the in vitro testing against a panel of selected gram-positive and gram-negative bacteria strains. All compounds were also pre-incubated in water for an hour prior to testing as control. Representative compounds of Formula I were incubated in human serum prior to MIC determination.

E. coli GC 2235 = assay: MIC, broth microdilution; conditions: Escherichia coli, GC2235, E. coli GC 2235
E. coli GC 2233 = assay: MIC, broth microdilution; conditions: Escherichia coli, GC2233, E. coli GC 2233
E. coli GC 2234 = assay: MIC, broth microdilution; conditions: Escherichia coli, GC2234, E. coli GC 2234
E. coli GC 2270 = assay: MIC, broth microdilution; conditions: Escherichia coli, GC2270, E. coli GC 2270
E. coli GC 2271 = assay: MIC, broth microdilution; conditions: Escherichia coli, GC2271, E. coli GC 2271
E. coli GC 4559 = assay: MIC, broth microdilution; conditions: Escherichia coli, GC4559, E. coli GC 4559
E. coli GC 1073 = assay: MIC, broth microdilution; conditions: Escherichia coli, GC1073, E. coli GC 1073
Method: (§1) Antimicrobial susceptibility testing. The in vitro activities of the antibiotics are determined by the broth microdilution method as recommended by the National Committee for Clinical Laboratory Standards (NCCLS) (1). Mueller-Hinton II broth (MHBII)(BBL Cockeysville, Md.) is the medium employed in the testing procedures. Microtiter plates containing serial dilutions of each antimicrobial agent are inoculated with each organism to yield the appropriate density (10^5 CFU/ml) in a 100 μl final volume. The plates are incubated for 18-22 hours at 35° C. in ambient air.
Representative compounds were first incubated in mouse serum for an hour prior to the in vitro testing against a panel of selected gram-positive and gram-negative bacteria strains. All compounds were also pre-incubated in water for an hour prior to testing as control. Representative compounds of Formula I were incubated in human serum prior to MIC determination.

P. aeruginosa GC 2214 = assay: MIC, broth microdilution; conditions: Pseudomonas aeruginosa, GC2214, P. aeruginosa GC 2214
S. aureus GC 1131 = assay: MIC, broth microdilution; conditions: Staphylococcus aureus, GC1131, S. aureus GC 1131
S. aureus GC 1079 = assay: MIC, broth microdilution; conditions: Staphylococcus aureus, GC1079, S. aureus GC 1079
S. aureus GC 2216 = assay: MIC, broth microdilution; conditions: Staphylococcus aureus, GC2216, S. aureus GC 2216
S. aureus GC 6335 = assay: MIC, broth microdilution; conditions: Staphylococcus aureus, GC6335, S. aureus GC 6335
S. epidermidis GC 4935 = assay: MIC, broth microdilution; conditions: Staphylococcus epidermidis, GC4935, S. epidermidis GC 4935
E. faecalis GC 2242 = assay: MIC, broth microdilution; conditions: Enterococcus faecalis, GC2242, E. faecalis GC 2242
E. faecium GC 4556 = assay: MIC, broth microdilution; conditions: Enterococcus faecium, GC4556, E. faecium GC 4556
S. pneumoniae+ GC 4465 = assay: MIC, broth microdilution; conditions: Streptococcus pneumoniae, S. pneumoniae+ GC 4465
Method: as §1
Representative compounds were first incubated in mouse serum for an hour prior to the in vitro testing against a panel of selected gram-positive and gram-negative bacteria strains. All compounds were also pre-incubated in water for an hour prior to testing as control.

S. pyogenes GC 4563 = assay: MIC, broth microdilution; conditions: Streptococcus pyogenes, GC4563, S. pyogenes GC 4563
c. albicans GC 3066 = assay: MIC, broth microdilution
Staph. aureus Smith = assay: In vivo activity (oral, iv; ED50) against Staph. aureus Smith in mice
Method: Representative examples of compounds of Formula I were tested for the oral efficacy using S. aureus Smith in mice.

**Q.** With `CCCCN(CC(=O)Nc1cc(N(C)C)c2c(c1O)C(=O)C1=C(O)[C@]3(O)C(=O)C(C(N)=O)=C(O)[C@@H](N(C)C)[C@@H]3C[C@@H]1C2)C(=O)OCOC(=O)Cc1ccccc1` [Example 12, ({[(2-{[(5aR,6aS,7S,10aS)-9-(aminocarbonyl)-4,7-bis(dimethylamino)-1,8,10a,11-tetrahydroxy-10,12-dioxo-5,5a,6,6a,7,10,10a,12-octahydrotetracen-2-yl]amino}-2-oxoethyl)(butyl)amino]carbonyl}oxy)methyl phenylacetate] as the molecule, how does the MIC (E. coli GC 2236; Mouse Serum pre-incubation) read?
**A.** Its MIC is 1 mg/L (≈ 1.29 µM).

**Q.** What about the MIC (E. coli GC 2236; Water pre-incubation) of the same molecule?
**A.** The MIC was 16 mg/L (≈ 20.6 µM).

**Q.** What about the MIC (E. coli GC 2235; Mouse Serum pre-incubation) of the same molecule?
**A.** The MIC was 1 mg/L (≈ 1.29 µM).

**Q.** What about the MIC (E. coli GC 2235; Water pre-incubation) of the same molecule?
**A.** The MIC was 16 mg/L (≈ 20.6 µM).

**Q.** And the MIC (E. coli GC 2233; Mouse Serum pre-incubation)?
**A.** Its MIC is 1 mg/L (≈ 1.29 µM).

**Q.** What about the MIC (E. coli GC 2233; Water pre-incubation) of the same molecule?
**A.** Its MIC is 32 mg/L (≈ 41.1 µM).

**Q.** And the MIC (E. coli GC 2234; Mouse Serum pre-incubation)?
**A.** Its MIC is 1 mg/L (≈ 1.29 µM).

**Q.** What about the MIC (E. coli GC 2234; Water pre-incubation) of the same molecule?
**A.** The MIC was 16 mg/L (≈ 20.6 µM).

**Q.** What about the MIC (E. coli GC 2270; Mouse Serum pre-incubation) of the same molecule?
**A.** Its MIC is 0.5 mg/L (≈ 0.643 µM).

**Q.** What about the MIC (E. coli GC 2270; Water pre-incubation) of the same molecule?
**A.** The MIC was 32 mg/L (≈ 41.1 µM).

**Q.** And the MIC (E. coli GC 2271; Mouse Serum pre-incubation)?
**A.** Its MIC is 0.5 mg/L (≈ 0.643 µM).

**Q.** And the MIC (E. coli GC 2271; Water pre-incubation)?
**A.** Its MIC is 16 mg/L (≈ 20.6 µM).

**Q.** And the MIC (E. coli GC 4559; Mouse Serum pre-incubation)?
**A.** Its MIC is 1 mg/L (≈ 1.29 µM).

**Q.** What about the MIC (E. coli GC 4559; Water pre-incubation) of the same molecule?
**A.** The MIC was 64 mg/L (≈ 82.3 µM).

**Q.** And the MIC (E. coli GC 1073; Mouse Serum pre-incubation)?
**A.** The MIC was 1 mg/L (≈ 1.29 µM).

**Q.** And the MIC (E. coli GC 1073; Water pre-incubation)?
**A.** Its MIC is 64 mg/L (≈ 82.3 µM).

**Q.** What about the MIC (P. aeruginosa GC 2214; Mouse Serum pre-incubation) of the same molecule?
**A.** Its MIC is 32 mg/L (≈ 41.1 µM).

**Q.** What about the MIC (P. aeruginosa GC 2214; Water pre-incubation) of the same molecule?
**A.** Its MIC is over 64 mg/L.

**Q.** What about the MIC (S. aureus GC 1131; Mouse Serum pre-incubation) of the same molecule?
**A.** The MIC was 1 mg/L (≈ 1.29 µM).

**Q.** And the MIC (S. aureus GC 1131; Water pre-incubation)?
**A.** The MIC was 2 mg/L (≈ 2.57 µM).

**Q.** And the MIC (S. aureus GC 1079; Mouse Serum pre-incubation)?
**A.** Its MIC is 2 mg/L (≈ 2.57 µM).

**Q.** What about the MIC (S. aureus GC 1079; Water pre-incubation) of the same molecule?
**A.** The MIC was 8 mg/L (≈ 10.3 µM).

**Q.** And the MIC (S. aureus GC 2216; Mouse Serum pre-incubation)?
**A.** The MIC was 1 mg/L (≈ 1.29 µM).

**Q.** And the MIC (S. aureus GC 2216; Water pre-incubation)?
**A.** The MIC was 4 mg/L (≈ 5.14 µM).

**Q.** What about the MIC (S. aureus GC 6335; Mouse Serum pre-incubation) of the same molecule?
**A.** Its MIC is 1 mg/L (≈ 1.29 µM).

**Q.** And the MIC (S. aureus GC 6335; Water pre-incubation)?
**A.** Its MIC is 2 mg/L (≈ 2.57 µM).

**Q.** And the MIC (S. epidermidis GC 4935; Mouse Serum pre-incubation)?
**A.** Its MIC is 4 mg/L (≈ 5.14 µM).

**Q.** And the MIC (S. epidermidis GC 4935; Water pre-incubation)?
**A.** Its MIC is 8 mg/L (≈ 10.3 µM).

**Q.** And the MIC (E. faecalis GC 2242; Mouse Serum pre-incubation)?
**A.** The MIC was 2 mg/L (≈ 2.57 µM).

**Q.** And the MIC (E. faecalis GC 2242; Water pre-incubation)?
**A.** The MIC was 4 mg/L (≈ 5.14 µM).

**Q.** And the MIC (E. faecium GC 4556; Mouse Serum pre-incubation)?
**A.** Its MIC is 1 mg/L (≈ 1.29 µM).

**Q.** What about the MIC (E. faecium GC 4556; Water pre-incubation) of the same molecule?
**A.** The MIC was 4 mg/L (≈ 5.14 µM).

**Q.** And the MIC (S. pneumoniae+ GC 4465; Mouse Serum pre-incubation)?
**A.** The MIC was 4 mg/L (≈ 5.14 µM).

**Q.** What about the MIC (S. pneumoniae+ GC 4465; Water pre-incubation) of the same molecule?
**A.** Its MIC is 8 mg/L (≈ 10.3 µM).

**Q.** What about the MIC (S. pyogenes GC 4563; Mouse Serum pre-incubation) of the same molecule?
**A.** The MIC was 0.12 mg/L (≈ 0.154 µM).

**Q.** What about the MIC (S. pyogenes GC 4563; Water pre-incubation) of the same molecule?
**A.** The MIC was 0.25 mg/L (≈ 0.321 µM).

**Q.** What about the MIC (c. albicans GC 3066; Candida albicans, GC3066) of the same molecule?
**A.** Its MIC is over 64 mg/L.

**Q.** What about the MIC (c. albicans GC 3066; c. albicans GC 3066, Water pre-incubation) of the same molecule?
**A.** The MIC was over 64 UG/ML.

**Q.** And the ED50 (Staph. aureus Smith; Staphylococcus aureus, in Mus musculus, po, read-out: ED50 Staph Smith SOD)?
**A.** Its ED50 is 15 mg/kg.

**Q.** What about the ED50 (Staph. aureus Smith; iv, read-out: ED50 Staph Smith SIV) of the same molecule?
**A.** The ED50 was 1 mg/kg.
